Common to all, as to type: functional
The subject of experiment [1] is Mus musculus. Briefly: Anti-colitis activity in ICR mouse model of DSS-induced colitis assessed as inhibition of DSS-induced colorectum shortening at 6 mg, po for 14 days relative to control.
For experiment [2], the system named is Mus musculus. In words: Anti-colitis activity in ICR mouse model of DSS-induced colitis assessed as reduction in DSS-induced body weight loss at 6 mg, po for 14 days relative to control. The arrangement: scale not given: the % may be the effect or the level left.
The subject of experiment [3] is Mus musculus. Briefly: Anti-colitis activity in C57BL/6 (B6) mouse model of DSS-induced colitis assessed as disease activity index at 100 mg/kg, ig pretreated for 3 days followed by DSS treatment for 7 days (reference value: 5.67 +/- 1.03).
The subject of experiment [4] is Rattus norvegicus. In words: Anti-colitis activity in Sprague-Dawley rat model of acetic acid-induced colitis assessed as disease activity index at 50 mg/kg, po administered for 7 consecutive days and measured on day 8 (reference value: 3.9 +/- 0.4).
Experiment [5] relates to Rattus norvegicus. Briefly: Anti-colitis activity in Sprague-Dawley rat model of acetic acid-induced colitis assessed as colon mucosa damage index at 50 mg/kg, po administered for 7 consecutive days and measured on day 8 (reference value: 3.3 +/- 0.6).
For experiment [6], the system named is Rattus norvegicus. Briefly: Anti-colitis activity in Sprague-Dawley rat model of acetic acid-induced colitis assessed as histological scores at 50 mg/kg, po administered for 7 consecutive days and measured on day 8 (reference value: 9.3 +/- 2.8).
In experiment [7] the test system is Rattus norvegicus. Briefly: Antiinflammatory activity in Sprague-Dawley rat model of acetic acid-induced colitis assessed as reduction in IFNgamma level in serum at 50 mg/kg, po administered for 7 consecutive days and measured on day 8 by ELISA method. (In general: In an ELISA, binding on a coated surface is turned into a signal by an enzyme label.)

Turning to `C[C@@H]1O[C@@H](OC[C@H]2O[C@@H](Oc3c(-c4ccc(O)c(O)c4)oc4cc(O)cc(O)c4c3=O)[C@H](O)[C@@H](O)[C@@H]2O)[C@H](O)[C@H](O)[C@H]1O` [RUTIN], the “inhibition (INH)” value in the experiment with Mus musculus [1] is 73%. Besides, the Activity in the experiment on Mus musculus [2] came out at 54%.
Taken in the same sequence, the figures for `O=c1c(O)c(-c2ccc(O)c(O)c2)oc2cc(O)cc(O)c12` [QUERCETIN] were 18% and 21%.
Take `O=C(O)[C@H]1O[C@@H](Oc2cc3oc(-c4ccccc4)cc(=O)c3c(O)c2O)[C@H](O)[C@@H](O)[C@@H]1O` [BAICALIN]: the Activity_index in the experiment on Mus musculus [3] was 3.33.
With `O=C(O[C@@H]1Cc2c(O)cc(O)cc2O[C@@H]1c1cc(O)c(O)c(O)c1)c1cc(O)c(O)c(O)c1` [EPIGALOCATECHIN GALLATE], the Activity_index turned out to be 1.1 with Rattus norvegicus [4] and 1.5 with Rattus norvegicus [5]. Further, the Activity was found to be 4.6 with Rattus norvegicus [6] and 33.3 pg/mL in the experiment with Rattus norvegicus [7].
